Legend:
[1] = tested on: human HepG2 liver cells; test: Intracellular fat content in HepG2 cells, AdipoRed/Hoechst 33258 double staining, 24 hours; format: cell-based; settings: HepG2, 0.8 mM palmitoleic acid, 0.1 μM compound, FIG. 10B; for palmitoleic acid-induced increase of intracellular triglyceride content: vs DMSO
Procedure: The effects of Compound 13-3-1, Compound 13-3-2, Compound 13-3-3, Compound 13-3-5, Compound 13-3-6, Compound 13-3-7, Compound 15-1, Compound 13-3-10 and Compound 13-3-11, as exemplary compounds of the invention, were tested. Human HepG2 liver cells were incubated with 0.8 mM palmitoleic acid in EMEM medium for 24 hours in the presence of 0.1 μM compounds or control vehicle, DMSO. Subsequently, the cells were washed with PBS and the intracellular fat content was measured by AdipoRed/Hoechst 33258 double staining, which was assessed by flourometry.

[2] = tested on: human HepG2 liver cells; test: Intracellular fat content in HepG2 cells, AdipoRed/Hoechst 33258 double staining, 48 hours; format: cell-based; settings: HepG2, 0.8 mM palmitoleic acid, 0.1 μM compound, FIG. 10C; for palmitoleic acid-induced increase of intracellular triglyceride content: vs DMSO
Procedure: And the effects of Compound 001, Compound 004, Compound 006, Compound 013, Compound 132, Compound 133 and Compound 134, as further exemplary compounds of the invention, were also tested. Human HepG2 liver cells were incubated with 0.8 mM palmitoleic acid in EMEM medium for 48 hours in the presence of 0.1 μM compounds of the invention or control vehicle, DMSO. Subsequently, the cells were washed with PBS and the intracellular fat content was measured by AdipoRed/Hoechst 33258 double staining, which was assessed by flourometry.

Structure (SMILES) | inhibitory effect on fat accumulation as compared to Compound 14-3 [1] | palmitoleic acid-induced increase of intracellular triglyceride content [1] | inhibitory effect on fat accumulation as compared to Compound 14-3 [2] | palmitoleic acid-induced increase of intracellular triglyceride content [2]
CCN(CC)CCNC(=O)c1c(C)[nH]c(/C=C2\C(=O)Nc3cccc(-c4cnc(OC)nc4)c32)c1C [Compound 13-3-5] | comparable or greater | markedly suppressed | – | –
CCN(CC)CCNC(=O)c1c(C)[nH]c(/C=C2\C(=O)Nc3ccc(-c4csc(Nc5ccccc5)n4)cc32)c1C [Compound 13-3-1] | comparable or greater | markedly suppressed | – | –
CCN(CC)CCNC(=O)c1c(C)[nH]c(/C=C2\C(=O)Nc3ccc(-c4csc(N5CCCCC5)n4)cc32)c1C [Compound 13-3-2] | comparable or greater | markedly suppressed | – | –
CCN(CC)CCNC(=O)c1c(C)[nH]c(/C=C2\C(=O)Nc3ccc(C4CCN(c5ccccc5)CC4)cc32)c1C [Compound 13-3-11] | comparable or greater | markedly suppressed | – | –
Cc1[nH]c(/C=C2\C(=O)Nc3ccc(-c4csc(-c5cccnc5)n4)cc32)c(C)c1C(=O)N1CCN(C)CC1 [Compound 15-1] | comparable or greater | markedly suppressed | – | –
CCN(CC)CCC(=O)N1CCN(c2ccc(/C=C3\C(=O)Nc4ccc(-c5csc(-c6ccccc6)n5)cc43)cc2)CC1 [Compound 13-3-6] | comparable or greater | markedly suppressed | – | –
CCN(CC)CCNC(=O)CCc1c(C)[nH]c(/C=C2\C(=O)Nc3ccc(-c4csc(-c5ccccc5)n4)cc32)c1C [Compound 13-3-7] | comparable or greater | markedly suppressed | – | –
[2H]C([2H])(NC(=O)c1c(C)[nH]c(/C=C2\C(=O)Nc3ccc(-c4csc(-c5ccccc5)n4)cc32)c1C)C([2H])([2H])N(CC)CC [Compound 001] | – | – | comparable or greater | markedly suppressed
CCN(CC)CCNC(=O)c1c(C)[nH]c(/C=C2\C(=O)Nc3cnc(-c4csc(-c5ccccc5)n4)cc32)c1C [Compound 13-3-10] | comparable or greater | markedly suppressed | – | –
[2H]c1c([2H])c([2H])c(-c2nc(-c3ccc4c(c3)/C(=C/c3[nH]c(C)c(C(=O)NC([2H])([2H])C([2H])([2H])N(CC)CC)c3C)C(=O)N4)cs2)c([2H])c1[2H] [Compound 013] | – | – | comparable or greater | markedly suppressed
[2H]C([2H])([2H])C([2H])([2H])N(C([2H])([2H])C([2H])([2H])[2H])C([2H])([2H])C([2H])([2H])NC(=O)c1c(C)[nH]c(/C=C2\C(=O)Nc3ccc(-c4csc(-c5ccccc5)n4)cc32)c1C [Compound 004] | – | – | comparable or greater | markedly suppressed
[2H]c1c([2H])c([2H])c(-c2nc(-c3ccc4c(c3)/C(=C/c3[nH]c(C)c(C(=O)NC([2H])([2H])C([2H])([2H])N(C([2H])([2H])C([2H])([2H])[2H])C([2H])([2H])C([2H])([2H])[2H])c3C)C(=O)N4)cs2)c([2H])c1[2H] [Compound 006] | – | – | comparable or greater | markedly suppressed
